Assay results from PubChem BioAssay (NCI).
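Following 48 hours of exposure in 96-well plates, responses at five concentrations were used to interpolate endpoints linearly. GI50 is the concentration that inhibits growth by half. Definition used: TGI = concentration required for complete inhibition of growth.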

Assays:
Test in all cases: NCI-60 cell line screen, 48 h
ACHN renal = test system: ACHN renal
BT-549 breast = test system: BT-549 breast
COLO 205 colon = test system: COLO 205 colon
HCT-15 colon = test system: HCT-15 colon
KM12 colon = test system: KM12 colon
MOLT-4 leukemia = test system: MOLT-4 leukemia
OVCAR-4 ovarian = test system: OVCAR-4 ovarian
RPMI-8226 leukemia = test system: RPMI-8226 leukemia
RXF 393 renal = test system: RXF 393 renal
UACC-62 melanoma = test system: UACC-62 melanoma

SMILES	GI50 (ACHN renal)	TGI (ACHN renal)	GI50 (BT-549 breast)	TGI (BT-549 breast)	GI50 (COLO 205 colon)	TGI (COLO 205 colon)	GI50 (HCT-15 colon)	TGI (HCT-15 colon)	GI50 (KM12 colon)	TGI (KM12 colon)	GI50 (MOLT-4 leukemia)	TGI (MOLT-4 leukemia)	GI50 (OVCAR-4 ovarian)	TGI (OVCAR-4 ovarian)	GI50 (RPMI-8226 leukemia)	TGI (RPMI-8226 leukemia)	GI50 (RXF 393 renal)	TGI (RXF 393 renal)	GI50 (UACC-62 melanoma)	TGI (UACC-62 melanoma)
N=C1C(c2nc3ccccc3s2)=C(O)CN1c1ccc(F)c(Cl)c1	17.4 µM	57.8 µM	30.2 µM	> 100 µM	> 100 µM	> 100 µM	0.999 µM	> 100 µM	73.9 µM	> 100 µM	19.6 µM	> 100 µM	20.5 µM	> 100 µM	18.9 µM	> 100 µM	7.38 µM	33.9 µM	16.8 µM	52.7 µM
O=c1[nH]c(=O)c2cn[nH]c2[nH]1	> 100 µM	> 100 µM	> 100 µM	> 100 µM	> 100 µM	> 100 µM	> 100 µM	> 100 µM	> 100 µM	> 100 µM	> 100 µM	> 100 µM	> 100 µM	> 100 µM	> 100 µM	> 100 µM	> 100 µM	> 100 µM	> 100 µM	> 100 µM
CC(=O)NC1C(OC[C@@H](CC(=O)N[C@@H](CC(=O)O)CC(=O)N[C@H](CC(=O)N[C@@H](CCCN)CC(=O)N[C@@H](CCCN)CC(=O)N[C@H](CC(N)=O)C(C)C)C(C)C)NC(=O)C[C@@H](N)C(C)C)OC(CO)C(O)C1O (stereo not given in full)	> 100 µM	> 100 µM	> 100 µM	> 100 µM	> 100 µM	> 100 µM	> 100 µM	> 100 µM	> 100 µM	> 100 µM	> 100 µM	> 100 µM	> 100 µM	> 100 µM	> 100 µM	> 100 µM	> 100 µM	> 100 µM	> 100 µM	> 100 µM
N#Cc1ccc(OCc2nc(N)nc(N)c2-c2ccc(Cl)c(Cl)c2)cc1	0.8 µM	> 100 µM	9.98 µM	> 100 µM	4.02 µM	> 100 µM	0.525 µM	> 100 µM	2.85 µM	84.5 µM	3.7 µM	40.8 µM	6.43 µM	> 100 µM	5.42 µM	> 100 µM	0.597 µM	30 µM	0.467 µM	87.7 µM
C=C(CN1C(=O)CN(C)C1=O)c1ccc(C(=O)Nc2ccccc2N)cc1	20.9 µM	> 100 µM	61.8 µM	> 100 µM	9.24 µM	44.8 µM	40.9 µM	> 100 µM	28.6 µM	> 100 µM	7.29 µM	63.3 µM	4.65 µM	35.8 µM	2.32 µM	14.8 µM	20.1 µM	67.2 µM	9.31 µM	32.3 µM
COc1ccc(-c2cc3c(c4cc(OC)ccc24)C(=O)OC3=O)cc1		> 100 µM		> 100 µM		> 100 µM		> 100 µM		> 100 µM		> 100 µM		> 100 µM		> 100 µM		> 100 µM		> 100 µM
CCN(Cc1ccc(Cl)cc1)c1ccc(CO)c(Cl)c1	4.64 µM	19.6 µM	5.02 µM	19.4 µM	2.2 µM	8.57 µM	3.52 µM	19.8 µM	11.8 µM	25.6 µM	13.5 µM	43.4 µM	0.543 µM	11.3 µM	3.27 µM	32.9 µM	2.07 µM	13.3 µM	0.0929 µM	0.719 µM
O=C(CCCCCCNC(=O)c1cnc(N(c2ccccc2)c2ccccc2)nc1)NO	3.99 µM	23.2 µM	12.5 µM	> 84.3 µM	1.79 µM	4.1 µM	18.4 µM	> 100 µM	3.26 µM	21.7 µM	2.13 µM	> 100 µM	5.56 µM	72.9 µM	1.29 µM	> 100 µM	0.796 µM	3.85 µM	1.21 µM	4.42 µM
C/C=C(\C)C(=O)NC1=CC[C@@]2(C)C(=CCC3C2CC[C@@]2(C)C3CC[C@@H]2C(C)N(C)C)C1=O (stereo not given in full)	8.03 µM	> 47 µM	3.39 µM	15.8 µM	1.72 µM	3.45 µM	1.54 µM	4.65 µM	2.85 µM	13.7 µM	0.843 µM	6.43 µM	4.58 µM	> 50.2 µM	1.91 µM	9.38 µM	1.56 µM	4.53 µM	1.82 µM	3.85 µM
COc1ccc(/C=C/C(=O)c2cc(OC)c(OC)c(OC)c2)cc1OCc1cn(Cc2ccc(F)cc2)nn1	3.53 µM	16.7 µM	3.45 µM	27.7 µM	2.98 µM	8.38 µM	2.04 µM	> 100 µM	3.14 µM	18.2 µM	3.97 µM	68.5 µM	3.42 µM	> 100 µM	1.7 µM	6.3 µM	1.9 µM	5.51 µM	3.16 µM	14.3 µM
CC(C)Cn1cnc2c(SCc3ccc(Cl)cc3Cl)nc(N)nc21		76.5 µM		> 100 µM		24.6 µM		> 100 µM		> 100 µM		26.9 µM		> 100 µM		74.8 µM		> 100 µM		> 100 µM
COc1cc(/C=C\c2cc(OC)c(OC)c(OC)c2)cc(NC(=O)/C=C/c2cc(OC)c(OC)c(OC)c2)c1OC	8.38 µM	> 100 µM	2.92 µM	> 100 µM	4.2 µM	> 100 µM	5.51 µM	> 100 µM	3.42 µM	> 100 µM	3.15 µM	> 100 µM	3.86 µM	> 100 µM	1.36 µM	> 100 µM	4.77 µM	> 100 µM	2.19 µM	> 100 µM
CCCCON(OC(=O)c1ccc2ccccc2c1)C(=O)c1ccccc1	> 100 µM	> 100 µM	92.3 µM	> 100 µM	> 100 µM	> 100 µM	> 100 µM	> 100 µM	> 100 µM	> 100 µM	29.2 µM	68.4 µM	> 100 µM	> 100 µM	74.2 µM	> 100 µM	> 100 µM	> 100 µM	> 100 µM	> 100 µM
C[C@H](NC(=O)[C@@H](C)N)[C@H](Oc1ccc2c(cnn2-c2ccc(F)cc2)c1)c1ccc2c(c1)OCCO2	1.83 µM	4.9 µM	1.82 µM	15 µM	1.83 µM	3.61 µM	1.98 µM	4.44 µM	2.13 µM	5.15 µM	1.44 µM	4.25 µM	2.84 µM	12.1 µM	1.17 µM	3.75 µM	3.58 µM	11.2 µM	1.87 µM	3.39 µM
CCOC(=O)Nc1ccc2c(c1)/C(=N\NC(N)=S)c1ccccc1-2	3.87 µM	15.7 µM	4.24 µM	14.3 µM	3.74 µM	15 µM	3.25 µM	18.4 µM	3.29 µM	13.6 µM	2.83 µM	13.2 µM	4.39 µM	39.1 µM	2.49 µM	12.9 µM	1.93 µM	4.6 µM	2.03 µM	4.77 µM
O=c1[nH]nnc2c1ncn2C1OC(CO)C(O)C1O (stereo not given)	1.8 µM	> 100 µM	> 100 µM	> 100 µM	6.09 µM	> 100 µM	8.04 µM	> 100 µM	11.8 µM	> 100 µM	2.07 µM	36 µM	5.02 µM	> 100 µM	6.71 µM	> 100 µM	14.1 µM	> 100 µM	4.95 µM	> 100 µM
CN(/N=C/c1cccc2cccnc12)c1ccc([N+](=O)[O-])cc1[N+](=O)[O-]		59.3 µM		59.7 µM		> 100 µM		> 100 µM		> 100 µM		> 100 µM		> 70.3 µM		> 100 µM		40.9 µM		63.1 µM
CCN(Cc1cc(Nc2nc(C)cn3c(-c4cn[nH]c4)cnc23)sn1)C(C)(C)CO	0.0306 µM	11.9 µM	0.0458 µM	1.18 µM	< 0.01 µM	0.132 µM	0.0746 µM	11.4 µM	0.0328 µM	10.4 µM	0.0465 µM	12.4 µM	< 0.0108 µM	8.38 µM	2.41 µM	10.1 µM	< 0.012 µM	0.0907 µM	0.0387 µM	12.8 µM
O=C1C(Cl)=C(Nc2cccc(Cl)c2)C(=O)N1Cc1ccc(Cl)cc1	1.39 µM	15 µM	0.338 µM	2.84 µM	1.46 µM	18.2 µM	0.43 µM	13 µM	2.83 µM	14.2 µM	0.513 µM	> 100 µM	4.68 µM	> 64.2 µM	0.266 µM	3.37 µM	0.778 µM	22.6 µM	0.779 µM	4.68 µM
COC(=O)C1CC23CCCN4CCC5(c6ccccc6N(C=O)C15CC2)C43 (stereo not given)		> 100 µM		> 100 µM		> 100 µM		> 100 µM		> 100 µM		> 100 µM		> 100 µM		> 100 µM		> 100 µM		> 100 µM
